{"source": "patent US8017618B2", "about": "“Antifolate agent combinations in the treatment of cancer” (Tracon Pharmaceuticals, Inc., priority 2006, dated 2011)", "key": {"H460 cells": {"test_system": "H460 cells", "conditions": "for formation of AP sites: pemetrexed 100, 200 and 400 μM, 24 hours, induction proportional to dose", "protocol": "To determine the effect of pemetrexed+methoxyamine (MX) compared to pemetrexed alone on the number of AP sites generated, an aldehyde reactive probe (ARP) reagent was used to measure AP sites formed by pemetrexed and blocked by MX. ARP and MX have a similar reactivity with AP sites, and react specifically with an aldehyde group, an open-ring form of the AP sites. […] H460 cells were treated with pemetrexed (0, 100, 200 or 400 μm) for 24 hours. DNA (15 μg) was then extracted from cells and incubated with 1 mM ARP at 37° C. for 10 min. DNA was precipitated and washed with ethanol, then resuspended in TE buffer (10 mM Tris-HCl, pH 7.2, 1 mM EDTA) and denatured at 100° C. for 5 min. The DNA was then quickly chilled on ice and mixed with an equal amount of ammonium acetate (2 M). Single-stranded DNA was then immobilized on a nitrocellulose membrane using a vacuum filter device. The membrane was incubated with streptavidin-conjugated horseradish peroxidase at room temperature for 30 min and rinsed with washing buffer (20 mM Tris-HCl, 1 mM EDTA, 0.26 M NaCl, 1% Tween-20). ARP-AP sites were visualized with ECL reagents (Amersham, Piscataway, N.J.). […] The effect of the combination of 200 μM pemetrexed and 6 mM MX was viewed at 24 hrs, 48 hrs and 72 hrs."}, "[1]": {"assay": "Oral and intravenous bioavailability study of MX via a single bolus administration to Sprague Dawley rats (plasma LC-MS/MS, noncompartmental PK)", "format": "in vivo", "experimental": "Oral and Intravenous Bioavailability Study of MX Via a Single Bolus Administration to Sprague Dawley Rats (Non-GLP). The studies described below were performed to evaluate the bioavailability of methoxyamine (MX) at the safe dose level by comparison of the pharmacokinetic parameters after single bolus oral and intravenous administrations of MX\nTest Animals. Thirty male and thirty female Sprague Dawley rats, 250-350 g, 7-10 weeks of age, were used during the study.\nDose Preparation and Concentration. One dose solution was prepared on the same day of dose administration, adjusted for the 98% purity of the test article, to achieve a concentration of 4.00 mg/mL “active” MX, 816.77 mg of MX was dissolved into 5% dextrose in a 200-mL volumetric flask. The prepared solution was equally divided into two amber bottles designated for either oral or IV administration. Aliquots were taken for analysis at preparation and after dosing, transported on dry ice and stored at <−70° C.\nDose Administration. All animals were weighed on the day of dose administration. Individual animal doses were based on this body weight. A constant dose volume of 5 mL/kg was used. IV doses were administered through a single bolus injection into the tail vein using a 3-mL syringe attached to a 26G×1″ needle. The IV dose was administered at a rate of approximately 2 mL/min. Oral doses were administered as a single bolus with an 18G×2″ feeding needle attached to a 3-mL syringe.\nBlood Sample Collection. Blood samples were collected at 5, 15, 30 mins, and 1, 2, 4, 6, 8, 12 and 24 hrs post-dose, with collection at two time points for each animal. Blood samples were collected through the jugular vein for the earlier time point and through the abdominal vein at sacrifice for the later time point. The blood was transferred from the drawing syringe into a 2 mL blood collection tube containing K3-EDTA as the anticoagulant and inverted to mix. Abdominal vein blood collection was performed immediately following CO2 euthanasia.\nPlasma Sample Preparation and Storage Conditions. The blood tube was placed on wet ice before centrifugation for plasma preparation. Whole blood samples were centrifuged at 3,000 rpm at 4° C., for 10 min. Plasma was pipetted into tubes and placed on dry ice initially and later stored at <−70° C.\nMass spectrometry (MS). Mass spectrometric detection was performed by electrospray ionization with positive turbo spray, according to the specifications listed below.\nPlasma Sample for LC-MS/MS Analysis. Individual plasma samples were thawed at ambient temperature and 250 μL was aliquoted for analysis if a dilution was not needed. Samples taken at 5 min to 1 hr from IV dosed animals or 15 min to 8 hr from orally dosed animals required 5-to 40-fold dilution to fall in the linear range of the method (1 to 1,000 ng/mL). For the samples requiring dilution, an appropriate volume was taken and mixed with blank rat plasma containing the same anticoagulant to make a total volume of 250 μL. The quantitation results were corrected with the dilution factor. Plasma was prepared for LC-MS/MS analysis as follows: • Plasma aliquots were vortexed for 30 seconds, and centrifuged at 14,000 rpm for 10 min to precipitate the interfering particles. • A 100 μL aliquot was taken from the supernatant and placed into a 1.5 mL microcentrifuge tube. • To the 100 μL plasma aliquot, 310 μL of H2O: formic acid (2:1), 30 μL of acenocoumerol (IS) in H2O (10 μg/mL) and 100 μL of diethylaminobenzaldehyde in 2:1H2O: formic acid solution (10 mg/mL) were added and mixed well. • The mixture was then incubated in a water bath at 80° C. for 2 hrs. After incubation, the supernatant was transferred into a HPLC vial for LC-MS/MS quantitation.\nMethoxyamine (MX) Pharmacokinetics and Bioavailability Analysis. Pharmacokinetics Analysis. […]"}, "NCI-H460 tumors": {"test_system": "NCI-H460 tumors", "assay": "Tumors in nude mice: NCI-H460 NSCLC cell line model", "format": "in vivo, female athymic HSD nude mice", "conditions": "MX 4 mg/kg with pemetrexed 150 mg/kg, five daily i.p. injections", "experimental": "(§1) Tumors in Nude Mice. […] Animals received five daily intraperitoneal injections of either saline, pemetrexed alone (150 mg/kg), MX alone (4 mg/kg), or a combination of pemetrexed (150 mg/kg) and MX (4 mg/kg) with a pemetrexed to MX ratio of […]."}, "HCT116 tumors": {"test_system": "HCT116 tumors", "assay": "Tumors in nude mice: HCT116 colon cancer cell line model", "format": "in vivo, female athymic HSD nude mice", "conditions": "MX 4 mg/kg with pemetrexed 150 mg/kg, five daily i.p. injections", "experimental": "as §1"}, "topoisomerase II": {"test_system": "topoisomerase II", "assay": "Topoisomerase II-mediated DNA cleavage of AP or MX-AP site substrates", "format": "biochemical", "conditions": "AP site at a topoisomerase II cleavage site, incubated with MX", "experimental": "Analysis of the effect of AP site or MX-AP site on topoisomerase II-mediated DNA cleavage. A position-specific apurinic site was incorporated by replacing a single nucleoside with deoxyuridine at a topoisomerase II cleavage site and then removing the uracil base with uracil-DNA glycosylase, generating AP sites that further are incubated with MX to produce MX-AP sites (FIG. 5A).\nFirst, it was determined whether APE has a differential effect between regular AP sites and MX-AP sites located in a position specific site for topo II cleavage."}, "[2]": {"conditions": "both sexes, Sprague-Dawley, rat, in vivo, po, 20 mg/kg"}, "[3]": {"conditions": "female, Sprague-Dawley, rat, in vivo, 20 mg/kg"}, "[4]": {"conditions": "female, Sprague-Dawley, rat, in vivo, iv, 20 mg/kg"}, "[5]": {"conditions": "female, Sprague-Dawley, rat, in vivo, po, 20 mg/kg"}, "[6]": {"conditions": "male, Sprague-Dawley, rat, in vivo, 20 mg/kg"}, "[7]": {"conditions": "male, Sprague-Dawley, rat, in vivo, iv, 20 mg/kg"}, "[8]": {"conditions": "male, Sprague-Dawley, rat, in vivo, po, 20 mg/kg"}}, "note": "Read-outs that look alike come from different tables or passages of the source."}
{"smiles": "Nc1nc2[nH]cc(CCc3ccc(C(=O)N[C@@H](CCC(=O)O)C(=O)O)cc3)c2c(=O)[nH]1", "note": "[pemetrexed, 2-[4-[2-(4-amino-2-oxo-3,5,7-triazabicyclo[4.3.0]nona-3,8,10-trien-9-yl)ethyl]benzoyl]aminopentanedioic acid]", "values": [{"measurement": "number of detectable AP sites over time", "setting": "H460 cells; 200 μM pemetrexed, 6 mM MX, 24 hrs, 48 hrs and 72 hrs", "value": "number of detectable AP sites were reduced"}, {"measurement": "formation of AP sites", "setting": "H460 cells", "value": "induces the formation of AP sites"}, {"measurement": "formation of AP sites", "setting": "H460 cells; listed as Pemetrexed", "value": "induced the formation of AP sites"}]}
{"smiles": "CON", "note": "[MX, Methoxyamine]", "values": [{"measurement": "half-life", "setting": "[1]; Sprague-Dawley, rat, in vivo, po", "value": "> 4", "unit": "h"}, {"measurement": "serum levels following oral dosing versus target Cmax associated with activity in mouse models of human cancer", "setting": "[1]; Sprague-Dawley, rat, in vivo, po, 20 mg/kg", "value": "> 50", "unit": "ng/mL"}, {"measurement": "half-life", "setting": "[1]; both sexes, Sprague-Dawley, rat, in vivo", "value": "4 to 6", "unit": "h"}, {"measurement": "Tmax", "setting": "[1]; [2]", "value": "0.5 to 1", "unit": "h"}, {"measurement": "bioavailability", "setting": "[1]; [2]", "value": "~100", "unit": "%"}, {"measurement": "Bioavailability (absolute, oral to IV AUC0-∞5 ratio)", "setting": "[1]; [3]", "value": 94, "unit": "%"}, {"measurement": "F", "setting": "[1]; [3]", "value": 0.94}, {"measurement": "distribution phase complete (time postdose)", "setting": "[1]; female, Sprague-Dawley, rat, in vivo, iv", "value": "approximately 2 hrs"}, {"measurement": "AUC0-∞5 (AUC0-∞ normalized to a total dose amount of 5 mg MX)", "setting": "[1]; [4]", "value": 13892, "unit": "ng·h/mL"}, {"measurement": "AUC(0-inf)", "setting": "[1]; [4]", "value": 13100, "unit": "ng·h/mL"}, {"measurement": "AUC(0-t)", "setting": "[1]; [4]", "value": 13000, "unit": "ng·h/mL"}, {"measurement": "Cmax", "setting": "[1]; [4]", "value": 11000, "unit": "ng/mL"}, {"measurement": "Tmax", "setting": "[1]; [4]", "value": 0.08, "unit": "h"}, {"measurement": "half-life", "setting": "[1]; [4]", "value": 4.6, "unit": "h"}, {"measurement": "AUC(0-inf)", "setting": "[1]; [5]", "value": 12000, "unit": "ng·h/mL"}, {"measurement": "AUC(0-t)", "setting": "[1]; [5]", "value": 11600, "unit": "ng·h/mL"}, {"measurement": "Cmax", "setting": "[1]; [5]", "value": 2960, "unit": "ng/mL"}, {"measurement": "Tmax", "setting": "[1]; [5]", "value": 0.5, "unit": "h"}, {"measurement": "half-life", "setting": "[1]; [5]", "value": 5.7, "unit": "h"}, {"measurement": "Bioavailability (absolute, oral to IV AUC0-∞5 ratio)", "setting": "[1]; [6]", "value": 110, "unit": "%"}, {"measurement": "F", "setting": "[1]; [6]", "value": 1.1}, {"measurement": "distribution phase complete (time postdose)", "setting": "[1]; male, Sprague-Dawley, rat, in vivo, iv", "value": "approximately 2 hrs"}, {"measurement": "AUC0-∞5 (AUC0-∞ normalized to a total dose amount of 5 mg MX)", "setting": "[1]; [7]", "value": 11284, "unit": "ng·h/mL"}, {"measurement": "AUC(0-inf)", "setting": "[1]; [7]", "value": 12700, "unit": "ng·h/mL"}, {"measurement": "AUC(0-t)", "setting": "[1]; [7]", "value": 12500, "unit": "ng·h/mL"}, {"measurement": "Cmax", "setting": "[1]; [7]", "value": 15500, "unit": "ng/mL"}, {"measurement": "Tmax", "setting": "[1]; [7]", "value": 0.08, "unit": "h"}, {"measurement": "half-life", "setting": "[1]; [7]", "value": 5.2, "unit": "h"}, {"measurement": "AUC0-∞5 (AUC0-∞ normalized to a total dose amount of 5 mg MX)", "setting": "[1]; [8]", "value": 12420, "unit": "ng·h/mL"}, {"measurement": "AUC(0-inf)", "setting": "[1]; [8]", "value": 13800, "unit": "ng·h/mL"}, {"measurement": "AUC(0-t)", "setting": "[1]; [8]", "value": 13600, "unit": "ng·h/mL"}, {"measurement": "Cmax", "setting": "[1]; [8]", "value": 2200, "unit": "ng/mL"}, {"measurement": "Tmax", "setting": "[1]; [8]", "value": 1, "unit": "h"}, {"measurement": "half-life", "setting": "[1]; [8]", "value": 4.2, "unit": "h"}, {"measurement": "clinical signs of toxicity", "setting": "[1]; rats, 20 mg/kg body weight intravenously or orally", "value": "no clinical signs of toxicity"}, {"measurement": "reversal of resistance to pemetrexed chemotherapy", "setting": "NCI-H460 tumors", "value": "reversed resistance"}, {"measurement": "reversal of resistance to pemetrexed chemotherapy", "setting": "HCT116 tumors", "value": "reversed resistance"}, {"measurement": "topoisomerase II-mediated cleavage of MX-AP sites", "setting": "topoisomerase II", "value": "MX-AP sites are able to stimulate topoisomerase II-mediated DNA cleavage"}]}
